Laboratory results from patent US5545625A, “Preventing conversion of citrulline to argininosuccinate to limit pathological nitric oxide overproduction” (The Medical College of Wisconsin Research Foundation, Inc., priority 1994, dated 1996).

Tests used:
[1] = tested on: argininosuccinate synthetase mRNA; assay: RT-PCR of argininosuccinate synthetase mRNA in induced rat aortic smooth muscle cells (Example III); assay type: cell-based; conditions: LPS 30 μg/ml plus interferon-gamma 50 ng/ml with mithramycin, 6 hours; FIG. 3
Protocol: Rat aortic smooth muscle cells were grown as described in Example I and were treated with 30 μg/ml bacterial lipopolysaccharide in combination with 50 ng/ml interferon-gamma. […] RNA was extracted by a modified guanidinium isothiocyanate method (RNAzol; Cinna/Biotecz, Houston, Tex.). Reverse transcriptase-polymerase chain reaction was performed by standard methods using 1 μg of total RNA. This was followed by polymerase chain reaction amplification using synthetic gene-specific primers for rat argininosuccinate synthetase as described in Amaya, Y., et al, J. Biochem. (Tokyo) 103, 177-181 (1988), for argininosuccinate lyase as described in Surh, L. C., et al, Nucleic Acids Research, 16, 9352 (1988) and murine-inducible nitric oxide synthase as described in Lyons, C. R., et al, J. Biol. Chem. 267, 6370-6374 (1992). The primers are specifically described in Hattori, Y., et al, J. Biol. Chem. 269, 9405-9408 (1994). Polymerase chain reaction amplification was performed according to the following schedule: denaturation, annealing, and elongation at 95, 55 and 72° C. for 30 sec, 30 sec and 1 min, respectively, for 30 cycles. […] Polymerase chain reaction products were electrophoresed on a 1.5% agarose gel containing ethidium bromide and visualized by UV-induced fluorescence. […]

[2] = tested on: argininosuccinate synthetase; assay: Argininosuccinate synthetase (AS) activity of rat aortic smooth muscle cells induced with LPS/interferon-gamma in presence of test agent (Example I); assay type: cell-based; conditions: mithramycin 0.001 to 10 μg/ml with LPS 30 μg/ml plus interferon-gamma 50 ng/ml, 24 hours; FIG. 1
Protocol: Aortic smooth muscle cells were cultured by explanting segments of the medial layer of aortae from adult male Fischer 344 rats. Aortae were removed aseptically and freed of adventitial and endothelial cells by scraping both the lumenal and abluminal surfaces. Medial fragments (1-2 mm) were allowed to attach to dry Primaria 25 cm^2 tissue culture flasks (Falcon; Oxnard, Calif.) which were kept moist with growth medium until cells emerged. Cultures were fed twice weekly with medium 199 containing 10% fetal bovine serum, 25 mM HEPES, 2 mM L-glutamine, 40 μg/ml endothelial cell growth supplement (Biomedical Technologies; Stoughton, Mass.) and 10 μg/ml gentamycin (GIBCO; Grand Island, N.Y.). When primary cultures became confluent, they were passaged by trypsinization and the explants were discarded. Cells in passage 10-15 were seeded at 20,000/well in 96-well plates. […]
Argininosuccinate synthetase activity was assayed based on the conversion of [^14 C]aspartate to [^14 C]argininosuccinate, as described in O'Brien, W. E., Biochemistry 18, 5353-5356, 1979, with the exception that aspartate was present at a concentration of 30 μm (0.021 μCi/nmol). […] Reactions were allowed to proceed for 90 minutes at 37° C before termination and quantification of the [^14 C]argininosuccinate formed, using ion exchange chromatography on Dowex 1-X8 (200-400 mesh, Bio-Rad).

Sprague-Dawley rats = assay: Air pouch inflammatory model with croton oil (Examples XII, XVIII); assay type: in vivo, rat; conditions: mithramycin 25 μg/kg intraperitoneally, repeated at 24 hour intervals; end of 5 days; versus rats without drug
[3] = tested on: human treated with interleukin-2; assay: Hypotension during interleukin-2 treatment for renal cell cancer (Examples VIII, XIV); assay type: in vivo; conditions: interleukin-2 1×10^6 units, 5 days; mithramycin 25 μg/kg intravenously as pretreatment and at 24 hour intervals
Protocol: A human is treated for renal cell cancer with interleukin-2 (1×10^6 units) for 5 days. By the fifth day, the patient's blood pressure falls to 80/55 mm Hg and the patient encounters nausea and extreme discomfort. Three weeks later, the patient returns for a second course of interleukin-2 treatment but is pretreated (before commencing interleukin-2 infusion) with mithramycin (25 μg/kg) and is treated at 24 hour intervals thereafter with 25 μg/kg of mithramycin. The mithramycin is administered intravenously in 50 ml saline over a 3 to 6 hour interval.
A human is treated for renal cell cancer with interleukin-2 (1×10^6) for 5 days. Simultaneously with commencing interleukin-2 infusion, L-thiocitrulline (10 mg/kg/day) is administered.

COC(C(=O)C(O)C(C)O)C1Cc2cc3cc(OC4CC(OC5CC(O)C(O)C(C)O5)C(O)C(C)O4)c(C)c(O)c3c(O)c2C(=O)C1OC1CC(OC2CC(OC3CC(C)(O)C(O)C(C)O3)C(O)C(C)O2)C(O)C(C)O1 (centres unmarked) [mithramycin]
gene transcription of argininosuccinate synthetase (mRNA level) [1]: inhibits gene transcription of argininosuccinate synthetase | argininosuccinate synthetase activity [2]: as a function of its concentration blocks argininosuccinate synthetase activity | inflammation (Sprague-Dawley rats): less inflammation | nitrite in the fluid exudate of the lesion (Sprague-Dawley rats): significantly less nitrite | development of hypotension [3]: hypotension does not develop
